Experimental data taken from ChEMBL document CHEMBL1201862, “PubChem BioAssay data set” (2004).
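In this assay, cells in 96-well plates receive the compound at five concentrations for 48 hours. Endpoints are linearly interpolated between the surrounding concentrations. At the GI50, growth is halved.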 Activity calls are given as the source filed them. No stated cut-off is given here; in the data, active = GI50 up to about 1.1 µM and inactive = higher.

Experiments:
Test in all cases: DTP human tumour cell line panel, 48 h
UO-31 = tested on: UO-31
UACC-257 = tested on: UACC-257
OVCAR-3 = tested on: OVCAR-3
OVCAR-4 = tested on: OVCAR-4
TK-10 = tested on: TK-10
CAKI-1 = tested on: CAKI-1
IGROV-1 = tested on: IGROV-1
NCI-H460 = tested on: NCI-H460
786-0 = tested on: 786-0
HCT-15 = tested on: HCT-15
NCI-H226 = tested on: NCI-H226
SN12C = tested on: SN12C
COLO 205 = tested on: COLO 205
HCC 2998 = tested on: HCC 2998
SK-MEL-2 = tested on: SK-MEL-2
K562 = tested on: K562
RPMI-8226 = tested on: RPMI-8226
SK-MEL-5 = tested on: SK-MEL-5

Row | Structure (SMILES) | GI50 (UO-31) | GI50 (UACC-257) | GI50 (OVCAR-3) | GI50 (OVCAR-4) | GI50 (TK-10) | GI50 (CAKI-1) | GI50 (IGROV-1) | GI50 (NCI-H460) | GI50 (786-0) | GI50 (HCT-15) | GI50 (NCI-H226) | GI50 (SN12C) | GI50 (COLO 205) | GI50 (HCC 2998) | GI50 (SK-MEL-2) | GI50 (K562) | GI50 (RPMI-8226) | GI50 (SK-MEL-5)
1 | COC(c1cccc(C(O)(C(F)(F)F)C(F)(F)F)c1)(C(F)(F)F)C(F)(F)F | 19.9 µM (inactive) | 27.1 µM (inactive) | 23.4 µM (inactive) | 16.7 µM (inactive) | 22.1 µM (inactive) | 24.4 µM (inactive) | 20.2 µM (inactive) | 18.3 µM (inactive) | 17.6 µM (inactive) | 19.1 µM | 18.2 µM (inactive) | 18.3 µM (inactive) | 19.3 µM (inactive) | 8.79 µM (inactive) | 18.2 µM (inactive) | – | – | –
2 | O=C(CSSCC(=O)Nc1ccc(Br)cc1)Nc1ccc(Br)cc1 | 17.7 µM (inactive) | 20.7 µM (inactive) | 18.1 µM (inactive) | 20 µM (inactive) | 16.7 µM (inactive) | 24.2 µM (inactive) | 18.2 µM (inactive) | 16.9 µM (inactive) | 17.6 µM (inactive) | 19.6 µM | 16.9 µM (inactive) | 16.3 µM (inactive) | 28.5 µM (inactive) | 22.1 µM (inactive) | – | 21.2 µM (inactive) | 21.6 µM (inactive) | 24 µM (inactive)
3 | CN(C)c1ccc(/C=C/C(=O)O)cc1 | > 100 µM (inactive) | > 100 µM (inactive) | 49.3 µM (inactive) | – | – | > 100 µM (inactive) | > 100 µM (inactive) | > 100 µM (inactive) | – | > 100 µM | > 100 µM (inactive) | > 100 µM (inactive) | > 100 µM (inactive) | > 100 µM (inactive) | > 100 µM (inactive) | > 100 µM (inactive) | > 100 µM (inactive) | > 100 µM (inactive)
4 | C=C1CC(OC)(C(O)C(=O)N[C@H]2OCO[C@H]3C2O[C@H](C[C@H](O)COC)C(C)(C)C3OC)O[C@H](C)[C@@H]1C (some centres not stated) | < 0.00773 µM (active) | < 0.00773 µM (active) | < 0.00773 µM (active) | < 0.00773 µM (active) | – | < 0.00773 µM (active) | < 0.00773 µM (active) | < 0.00773 µM (active) | – | < 0.00773 µM | < 0.00773 µM (active) | < 0.00773 µM (active) | < 0.00773 µM (active) | < 0.00773 µM (active) | – | < 0.00773 µM (active) | < 0.00773 µM (active) | < 0.00773 µM (active)
5 | COC(=O)C12CC(c3ccccc31)C1C(=O)OC(=O)C12 (configuration not stated) | > 100 µM (inactive) | > 100 µM (inactive) | > 100 µM (inactive) | > 100 µM (inactive) | > 100 µM (inactive) | – | > 100 µM (inactive) | > 100 µM (inactive) | > 100 µM (inactive) | > 100 µM | – | > 100 µM (inactive) | > 100 µM (inactive) | > 100 µM (inactive) | > 100 µM (inactive) | > 100 µM (inactive) | > 100 µM (inactive) | > 100 µM (inactive)
6 | C=C(C(=C)P(=S)(c1ccccc1)c1ccccc1)P(=S)(c1ccccc1)c1ccccc1 | – | > 100 µM (inactive) | > 100 µM (inactive) | 34.8 µM (inactive) | > 100 µM (inactive) | > 100 µM (inactive) | > 100 µM (inactive) | > 100 µM (inactive) | > 100 µM (inactive) | > 100 µM | – | > 100 µM (inactive) | > 100 µM (inactive) | > 100 µM (inactive) | > 100 µM (inactive) | > 100 µM (inactive) | 8.75 µM (inactive) | > 100 µM (inactive)
7 | O=c1[nH]cc(COCC(F)(F)C(F)(F)C(F)(F)C(F)F)c(=O)[nH]1 | > 100 µM (inactive) | > 100 µM (inactive) | > 100 µM (inactive) | – | > 100 µM (inactive) | > 100 µM (inactive) | > 100 µM (inactive) | – | > 100 µM (inactive) | > 100 µM | – | > 100 µM (inactive) | > 100 µM (inactive) | > 100 µM (inactive) | > 100 µM (inactive) | > 100 µM (inactive) | > 100 µM (inactive) | > 100 µM (inactive)
8 | Cc1cc(C)n(CCNCCn2nc(C)cc2C)n1 | > 100 µM (inactive) | > 100 µM (inactive) | > 100 µM (inactive) | > 100 µM (inactive) | > 100 µM (inactive) | > 100 µM (inactive) | – | > 100 µM (inactive) | > 100 µM (inactive) | – | – | > 100 µM (inactive) | > 100 µM (inactive) | > 100 µM (inactive) | – | > 100 µM (inactive) | > 100 µM (inactive) | > 100 µM (inactive)
9 | CSCC[C@@H](NC(=O)[C@H](CC(C)C)NC(=O)C(Cc1cnc[nH]1)NC(=O)CNC(=O)[C@@H](NC(=O)[C@H](C)NC(=O)[C@H](Cc1c[nH]c2ccccc12)NC(=O)[C@H](CCC(N)=O)NC(=O)[C@@H](N)CC(N)=O)C(C)C)C(N)=O (some centres not stated) | > 100 µM (inactive) | > 88.7 µM (inactive) | > 100 µM (inactive) | > 100 µM (inactive) | – | – | > 100 µM (inactive) | > 100 µM (inactive) | – | > 100 µM | > 100 µM (inactive) | > 100 µM (inactive) | > 100 µM (inactive) | > 100 µM (inactive) | > 100 µM (inactive) | > 100 µM (inactive) | > 100 µM (inactive) | > 100 µM (inactive)
10 | O=C1/C(=C/c2ccccc2)CN(C(=O)Oc2ccc(Cl)cc2)C/C1=C\c1ccccc1 | 4.75 µM (inactive) | 1.7 µM (inactive) | 3.42 µM (inactive) | 0.887 µM (active) | 5.21 µM (inactive) | – | 3.05 µM (inactive) | 2.44 µM (inactive) | 1.96 µM (inactive) | 1.17 µM | 5.74 µM (inactive) | 1.84 µM (inactive) | 3.1 µM (inactive) | 1.51 µM (inactive) | 11.5 µM (inactive) | 1.76 µM (inactive) | 0.0957 µM (active) | 1.68 µM (inactive)
11 | COC(=O)c1ccc(/N=N/N(C)CO)cc1 | > 100 µM (inactive) | > 100 µM (inactive) | 91.4 µM (inactive) | 55.8 µM (inactive) | > 100 µM (inactive) | – | > 100 µM (inactive) | > 100 µM (inactive) | 74 µM (inactive) | > 100 µM | > 100 µM (inactive) | > 100 µM (inactive) | > 100 µM (inactive) | > 100 µM (inactive) | > 100 µM (inactive) | 68.4 µM (inactive) | > 100 µM (inactive) | > 100 µM (inactive)
12 | O=C1C(c2ccccc2)=[N+]([O-])c2cc([N+](=O)[O-])c(/C(Cl)=C/c3ccccc3)cc21 | 41.8 µM (inactive) | – | 13.5 µM (inactive) | 13.1 µM (inactive) | 33.7 µM (inactive) | – | 23.2 µM (inactive) | – | 29.9 µM (inactive) | – | 31.2 µM (inactive) | – | 17.3 µM (inactive) | – | – | 13.8 µM (inactive) | 13.9 µM (inactive) | 20.4 µM (inactive)
13 | Cc1cc(NS(=O)(=O)c2ccc(NC(=O)c3cccc4cc5ccccc5nc34)cc2)no1 | 6.87 µM (inactive) | 27.4 µM (inactive) | 22.3 µM (inactive) | 18.3 µM (inactive) | 35.9 µM (inactive) | 21.9 µM (inactive) | 15.8 µM (inactive) | 18.3 µM (inactive) | 16.7 µM (inactive) | 14.7 µM | 0.191 µM (active) | 18 µM (inactive) | 23.3 µM (inactive) | – | 18.7 µM (inactive) | 18.1 µM (inactive) | 16.1 µM (inactive) | 15.6 µM (inactive)
14 | C#CCCCCC#CC1CCCC1C1=CC(=O)c2ccccc21 (configuration not stated) | 8.17 µM (inactive) | 11.2 µM (inactive) | 5.3 µM (inactive) | 10.3 µM (inactive) | 20.3 µM (inactive) | – | 6 µM (inactive) | 15.3 µM (inactive) | – | 7.24 µM | 14.5 µM (inactive) | 6.38 µM (inactive) | 15.3 µM (inactive) | 12.6 µM (inactive) | 11.2 µM (inactive) | 2.4 µM (inactive) | 1.98 µM (inactive) | 7.67 µM (inactive)
15 | CCCCc1c2c(nc3c1CCCC3=O)CCCC2 | > 100 µM (inactive) | > 10 µM (inactive) | > 100 µM (inactive) | – | – | – | > 100 µM (inactive) | > 100 µM (inactive) | > 100 µM (inactive) | > 100 µM | 18.3 µM (inactive) | > 100 µM (inactive) | > 100 µM (inactive) | > 100 µM (inactive) | – | > 100 µM (inactive) | > 100 µM (inactive) | > 100 µM (inactive)
16 | Cc1ccccc1NC(=O)CSc1nnc(-c2ccc(/N=C\c3ccc(Cl)cc3)cc2)o1 | > 100 µM (inactive) | > 100 µM (inactive) | – | > 100 µM (inactive) | > 100 µM (inactive) | – | – | > 100 µM (inactive) | > 100 µM (inactive) | > 100 µM | > 100 µM (inactive) | > 100 µM (inactive) | > 100 µM (inactive) | – | > 100 µM (inactive) | > 100 µM (inactive) | > 100 µM (inactive) | > 100 µM (inactive)
17 | Cc1nc(=O)n2c(c1C(=O)Nc1ccc(Cl)cc1)NCCC2 | – | – | > 100 µM (inactive) | > 100 µM (inactive) | > 100 µM (inactive) | > 100 µM (inactive) | > 100 µM (inactive) | > 100 µM (inactive) | > 100 µM (inactive) | > 100 µM | > 100 µM (inactive) | > 100 µM (inactive) | > 100 µM (inactive) | – | > 100 µM (inactive) | > 100 µM (inactive) | > 100 µM (inactive) | –
18 | COc1cc2c(cc1OC)C(Cl)C(c1ccc(Cl)cc1)=C2Cl (configuration not stated) | 16.8 µM (inactive) | – | 16.5 µM (inactive) | – | 19.6 µM (inactive) | 17.3 µM (inactive) | 19.3 µM (inactive) | 13.5 µM (inactive) | – | 14.5 µM | 22 µM (inactive) | 17.5 µM (inactive) | 16.8 µM (inactive) | – | 16 µM (inactive) | 7.66 µM (inactive) | 9.02 µM (inactive) | 14.4 µM (inactive)
